Reference: patent US5631244A, “mono(6-amino-6-deoxy)cyclodextrin derivatives substituted in the 6-position by an α-amino acid residue, process for their preparation and their uses” (L'Oreal, priority 1993, dated 1997)
Converted amounts (≈) assume the structure as drawn.

assay: Solubility in water of the cyclodextrin derivatives; type: physicochemical

| SMILES | solubility [mg/mL] |
| --- | --- |
| NC(CCC(=O)NC[C@H]1O[C@@H]2O[C@H]3[C@H](O)[C@@H](O)[C@@H](O[C@H]4[C@H](O)[C@@H](O)[C@@H](O[C@H]5[C@H](O)[C@@H](O)[C@@H](O[C@H]6[C@H](O)[C@@H](O)[C@@H](O[C@H]7[C@H](O)[C@@H](O)[C@@H](O[C@H]8[C@H](O)[C@@H](O)[C@@H](O[C@H]1[C@H](O)[C@H]2O)O[C@@H]8CO)O[C@@H]7CO)O[C@@H]6CO)O[C@@H]5CO)O[C@@H]4CO)O[C@@H]3CO)C(=O)O (stereo partly drawn) [Example 1(b), mono[N-(4-amino-4-carboxybutyryl)amino]-6-deoxy-β-cyclodextrin] | > 1000 |
| NC(Cc1ccc(OCC(=O)NC[C@H]2O[C@@H]3O[C@H]4[C@H](O)[C@@H](O)[C@@H](O[C@H]5[C@H](O)[C@@H](O)[C@@H](O[C@H]6[C@H](O)[C@@H](O)[C@@H](O[C@H]7[C@H](O)[C@@H](O)[C@@H](O[C@H]8[C@H](O)[C@@H](O)[C@@H](O[C@H]9[C@H](O)[C@@H](O)[C@@H](O[C@H]2[C@H](O)[C@H]3O)O[C@@H]9CO)O[C@@H]8CO)O[C@@H]7CO)O[C@@H]6CO)O[C@@H]5CO)O[C@@H]4CO)cc1)C(=O)O (stereo partly drawn) [Example 3, mono [N-4-(2'-amino 2'-carboxy ethyl) 1-(phenyloxymethylcarbonyl)amino]6-deoxy β-cyclodextrin] | 900 (≈ 664 mM) |
| NC(CC(=O)NC[C@H]1O[C@@H]2O[C@H]3[C@H](O)[C@@H](O)[C@@H](O[C@H]4[C@H](O)[C@@H](O)[C@@H](O[C@H]5[C@H](O)[C@@H](O)[C@@H](O[C@H]6[C@H](O)[C@@H](O)[C@@H](O[C@H]7[C@H](O)[C@@H](O)[C@@H](O[C@H]8[C@H](O)[C@@H](O)[C@@H](O[C@H]1[C@H](O)[C@H]2O)O[C@@H]8CO)O[C@@H]7CO)O[C@@H]6CO)O[C@@H]5CO)O[C@@H]4CO)O[C@@H]3CO)C(=O)O (stereo partly drawn) [Example 2(b), mono[N-(3-amino 3-carboxypropionyl)amino]-6-deoxy-β-cyclodextrin] | > 1000 |
